Laboratory results as given in US20040023972A1, “Use of substituted imidazo[1,2-a]-pyridin-, -pyrimidin-and-pyrazin-3-yl-amine derivatives in the preparation of medicaments for inhibiting NOS” (Gruenenthal GmbH, priority 2000, published 2004).

Target: T1, NO synthase (Rattus norvegicus, UniProt P29476)
T1 construct: the supernatant was then removed by decantation and frozen in portions at −80° C; from tissue; host or cells: rat cerebellum, 20,000 g supernatant of homogenate
Assay: HTS-NOS assay (NOS assay): conversion of radioactive arginine, cation-exchanger filter plate
Format: biochemical
Settings: for inhibition at 10 µM: read-out: HTS-NOS assay: % inhibition (10 μM); for NOS assay % inhibition: Table 5, concentration not given
Protocol: This assay enables the percentage inhibition of NO synthase by an active ingredient to be determined by measuring the NOS activity under the action of the active ingredient. NO synthase is mixed together with radioactively labelled arginine and the active ingredient under suitable conditions. After terminating the NO-forming reaction at a given time, the amount of unconverted arginine is determined directly or indirectly. A comparison of that amount with the amount of arginine that remains in a mixture of NOS and arginine without the addition of active ingredient and under otherwise identical conditions gives the % inhibition of NO synthase by the tested active ingredient. This assay can be carried out as follows:
(a) incubation of NO synthase with labelled arginine as substrate in a reaction vessel,
(b) separation of the labelled arginine from the labelled citrulline optionally formed as a product of the enzymatic reaction, at a time at which the citrulline concentration is increasing,
(c) measurement of the amount of arginine remaining in each case.
Separation is carried out over a filter plate membrane.
This NOS assay is suitable especially for “high throughput screening” (HTS) on microtitre plates (MTP).
In this HTS-NOS assay, radioactive arginine is used as substrate. The assay volume can be chosen in the range from 25 μl to 250 μl, according to the type of microtitre plate (MTP). Depending on the source of the enzyme used, co-factors and co-enzymes are added. Incubation of the batches on this microtitre plate (assay MTP) according to step (a) is carried out at room temperature and is for 5 to 60 minutes according to the enzyme activity used (units). At the end of the incubation (step (a)), the plate is placed into a cell harvester which is equipped with a MTP having a cation-exchanger membrane as the filter base (filter MTP). All batches of the assay MTP are transferred to the filter MTP and filtered off with suction over a cation-exchanger filter plate, a paper filter charged with phosphate groups. The filter MTP is then washed with buffer or water. By means of this procedure, the arginine substrate that remains is bound to the cation exchanger, while the enzymatically formed radioactive citrulline is washed out quantitatively. After drying the filter MTP and adding scintillation liquid, the bound arginine can be counted using a scintillation counter. An uninhibited NOS reaction is reflected in low radioactivity. An inhibited enzyme reaction means that the radioactive arginine has not been converted. This means that a high level of radioactivity is found on the filter.
Rat cerebella were used as the starting tissue. The animals were anaesthetized and sacrificed, the brain tissue, the cerebellum, was removed by dissection, 1 ml of enzyme preparation buffer was added per rat cerebellum (4° C.), and disintegration was carried out using a Polytron homogeniser for 1 minute at 6000 rpm, followed by centrifugation for 15 minutes at 4° C. and 20,000 g; the supernatant was then removed by decantation and frozen in portions at −80° C. (the precipitate was discarded).
96-well MTP having a well capacity of <250 μl were used.
Pipetting sequence: see Table 1.
When the pipetting operation was complete, a cover was placed on the MTP (assay MTP), and incubation was at 25° C. (room temperature (RT)) for from 5 to 60 minutes, according to the amount and activity of the enzyme used.
The contents of the assay MTP were then transferred with the aid of a 96-well cell harvester to a 96-well cation exchanger MTP (filter MTP) and filtered off with suction. This was followed by washing once with […] of H2O (from a bath).
The plate was then dried for 1 hour at 60° C. in a drying cabinet. The underside of the filter MTP was then accurately sealed from beneath with a “back seal”. 35 μl of scintillation fluid per well were then added by means of a pipette. The upper side of the plate was also sealed with a “top seal”. […]

For `Cc1ccn2c(NC(C)(C)CC(C)(C)C)c(-c3ccco3)nc2c1` [Example 28, (2-Furan-2-yl-7-methyl-imidazo[1,2-a]-pyridin-3-yl)-(1,1,3,3-tetramethyl-butyl)-amine], the inhibition at 10 µM was 50%.
`CCc1ccn2c(Nc3ccc(F)c(Cl)c3)c(-c3ccc(-c4ccccc4Cl)o3)nc2c1` [Example 321, (3-Chloro-4-fluorophenyl)-{2-[5-(2-chlorophenyl)-furan-2-yl]-7-ethyl-imidazo[1,2-a]pyridin-3-yl}-amine] gave an inhibition at 10 µM of 50%.
Work on `CC(=O)N(c1c(C)nc2cc(C)ccn12)C(C)(C)CC(C)(C)C` [Example 250, N-(2,7-dimethyl-imidazo[1,2-a]pyridin-3-yl)-N-(1,1,3,3-tetramethyl-butyl)-acetamide] yielded an inhibition at 10 µM of 58%.
In the case of `Cc1cc(C)n2c(NC3CCCC3)c(-c3ccc(-c4ccc(Cl)cc4)o3)nc2c1.Cl` [Example 306, {2-[5-(4-Chlorophenyl)-furan-2-yl]-5,7-dimethyl-imidazo[1,2-a]pyridin-3-yl}-cyclopentyl-amine hydrochloride], the “NOS assay % inhibition” value is reported as 73%.
`Cc1ccc2nc(-c3cccc(Cl)c3Cl)c(NC(C)(C)CC(C)(C)C)n2c1` [Example 112, [2-(2,3-Dichloro-phenyl)-6-methyl-imidazo[1,2-a]pyridin-3-yl]-(1,1,3,3-tetramethyl-butyl)-amine] was tested, and the inhibition at 10 µM was 52%.
`COc1cccc(-c2nc3cc(C)cc(C)n3c2N(C(C)=O)C(C)(C)CC(C)(C)C)c1OC` [Example 194, N-[2-(2,3-dimethoxy-phenyl)-5,7-dimethyl-imidazo[1,2-a]pyridin-3-yl]-N-(1,1,3,3-tetramethyl-butyl)-acetamide] was tested, and the inhibition at 10 µM was 59%.
`CCc1ccn2c(Nc3ccc(F)c(Cl)c3)c(-c3ccc(C)o3)nc2c1` [Example 317, (3-Chloro-4-fluoro-phenyl)-[7-ethyl-2-(5-methyl-furan-2-yl)-imidazo[1,2-a]pyridin-3-yl]-amine] gave an inhibition at 10 µM of 59%.
With `C#[N+]CCCCCCNc1c(-c2ccc(OC)c(OC)c2)nc2cc(C)ccn12` [Example 109, {6-[2-(3,4-Dimethoxy-phenyl)-7-methyl-imidazo[1,2-a]pyridin-3-ylamino]-hexyl}-methylidyne-ammonium] the “HTS-NOS assay: % inhibition (10 μM)” value was 51%.
`CC(=O)N(c1c(-c2ccco2)nc2cc(C)ccn12)C1CCCCC1` [Example 262, N-cyclohexyl-N-(2-furan-2-yl-7-methyl-imidazo[1,2-a]pyridin-3-yl)-acetamide] was tested, and the inhibition at 10 µM was 54%.
For `COc1cccc(-c2nc3cc(C)cc(C)n3c2NC(C)(C)C)c1OC` [Example 5, Tert-butyl-[2-(2,3-dimethoxy-phenyl)-5,7-dimethyl-imidazo[1,2-a]pyridin-3-yl]-amine], the inhibition at 10 µM was 61%.
`CCCCN(C(C)=O)c1c(-c2ccc(Cl)cc2Cl)nc2ncccn12` [Example 223, N-butyl-N-[2-(2,4-dichloro-phenyl)-imidazo[1,2-a]pyrimidin-3-yl]-acetamide] gave an inhibition at 10 µM of 62%.
Work on `COc1cc(-c2nc3nc(Cl)cc(N)n3c2N(C(C)=O)C2CCCCC2)ccc1OC(C)=O` [Example 251, acetic acid 4-[3-(acetyl-cyclohexyl-amino)-5-amino-7-chloro-imidazo[1,2-a]-pyrimidin-2-yl]-2-methoxy-phenyl ester] yielded an inhibition at 10 µM of 51%.
`COc1cc(-c2nc3nc(C)cc(C)n3c2N(C(C)=O)C2CCCCC2)ccc1OC(C)=O` [Example 252, acetic acid 4-[3-(acetyl-cyclohexyl-amino)-5,7-dimethyl-imidazo[1,2-a]-pyrimidin-2-yl]-2-methoxy-phenyl ester] showed an inhibition at 10 µM of 53%.
`CC(=O)N(c1c(-c2sccc2Br)nc2ccc(C)cn12)C1CCCCC1` [Example 224, N-[2-(3-bromo-thiophen-2-yl)-6-methyl-imidazo[1,2-a]pyridin-3-yl]-N-cyclohexyl-acetamide] showed an inhibition at 10 µM of 53%.
Molecule `Cc1cc(C)n2c(NC3CCCCC3)c(C3CCCCC3)nc2c1` [Example 77, Cyclohexyl-(2-cyclohexyl-5,7-dimethyl-imidazo[1,2-a]pyridin-3-yl)-amine] has an inhibition at 10 µM of 63%.
“[6-(acetyl-{7-methyl-2-[5-(2-nitro-phenyl)-furan-2-yl]-imidazo[1,2-a]pyridin-3-yl}-amino)-hexyl]-methylidyne-ammonium [Example 215]” was tested, and the “HTS-NOS assay: % inhibition (10 μM)” value was 50%.
`CC(=O)N(c1c(-c2ccc(C3OCCO3)o2)nc2cc(C)ccn12)C(C)(C)C` [Example 214, N-tert-butyl-N-[2-(5-[1,3]dioxolan-2-yl-furan-2-yl)-7-methyl-imidazo[1,2-a]-pyridin-3-yl]-acetamide] gave an inhibition at 10 µM of 56%.
`CC(=O)N(c1c(-c2cc3ccccc3o2)nc2cc(C)ccn12)C(C)(C)CC(C)(C)C` [Example 216, N-(2-benzofuran-2-yl-7-methyl-imidazo[1,2-a]pyridin-3-yl)-N-(1,1,3,3-tetramethyl-butyl)-acetamide] gave an inhibition at 10 µM of 50%.
Work on `Cc1cc(C)n2c(NC(C)(C)C)c(-c3ccc(C(=O)O)o3)nc2c1` [Example 67, 5-(3-Tert-butylamino-5,7-dimethyl-imidazo[1,2-a]pyridin-2-yl)-furan-2-carboxylic acid] yielded an inhibition at 10 µM of 56%.
Work on `Cc1cc(C)n2c(Nc3c(C)cccc3C)c(-c3cccc(O)c3)nc2c1` [Example 129, 3-[3-(2,6-Dimethyl-phenylamino)-5,7-dimethyl-imidazo[1,2-a]pyridin-2-yl]-phenol] yielded an inhibition at 10 µM of 61%.
With `CCCCN(C(C)=O)c1c(-c2ccc(C)cc2)nc2nc(C)ccn12` [Example 287, N-butyl-N-(7-methyl-2-p-tolyl-imidazo[1,2-a]pyrimidin-3-yl)-acetamide] the inhibition at 10 µM was 58%.
`CC(=O)N(c1c(-c2ccco2)nc2cc(C)cc(C)n12)C(C)(C)CC(C)(C)C` [Example 143, N-(2-furan-2-yl-5,7-dimethyl-imidazo[1,2-a]pyridin-3-yl)-N-(1,1,3,3-tetramethylbutyl)-acetamide] gave an inhibition at 10 µM of 68%.
`CC(=O)N(c1c(-c2ccc(C)cc2)nc2ccc(C)cn12)C(C)(C)CC(C)(C)C` [Example 242, N-(6-methyl-2-p-tolyl-imidazo[1,2-a]pyridin-3-yl)-N-(1,1,3,3-tetramethyl-butyl)-acetamide] showed an inhibition at 10 µM of 58%.
Molecule `CC(=O)N(c1c(-c2ccco2)nc2c(Br)cc(Br)cn12)C(C)(C)CC(C)(C)C` [Example 165, N-(6,8-dibromo-2-furan-2-yl-imidazo[1,2-a]pyridin-3-yl)-N-(1,1,3,3-tetramethylbutyl)-acetamide] has an inhibition at 10 µM of 67%.
`CC(=O)N(c1c(-c2cccc(Oc3ccc(Cl)cc3)c2)nc2ccccn12)C1CCCCC1` [Example 269, N-{2-[3-(4-chloro-phenoxy)-phenyl]-imidazo[1,2-a]pyridin-3-yl}-N-cyclohexyl-acetamide] was tested, and the inhibition at 10 µM was 51%.
Work on `Cc1cc(C)n2c(NC(C)(C)C)c(-c3ccc([N+](=O)[O-])o3)nc2c1` [Example 51, Tert-butyl-[5,7-dimethyl-2-(5-nitro-furan-2-yl)-imidazo[1,2-a]pyridin-3-yl]-amine] yielded an inhibition at 10 µM of 59%.
`CCCCNc1c(-c2cccc(OC)c2OC)nc2cc(C)ccn12` [Example 74, Butyl-[2-(2,3-dimethoxy-phenyl)-7-methyl-imidazo[1,2-a]pyridin-3-yl]-amine] showed an inhibition at 10 µM of 62%.
With `Cc1cc(C)n2c(NC3CCCC3)c(-c3ccc(-c4ccccc4[N+](=O)[O-])o3)nc2c1.Cl` [Example 305, Cyclopentyl-{5,7-dimethyl-2-[5-(2-nitro-phenyl)-furan-2-yl]-imidazo[1,2-a]pyridin-3-yl}-amine hydrochloride] the “NOS assay % inhibition” value was 55%.
With `[C-]#[N+]CCCCCCNc1c(-c2cccc(O)c2)nc2c(C)cccn12` [Example 131, {6-[2-(3-Hydroxy-phenyl)-8-methyl-imidazo[1,2-a]pyridin-3-ylamino]-hexyl}-methylidyne-ammonium] the “HTS-NOS assay: % inhibition (10 μM)” value was 55%.
